According to the supplement of paper PMC9663587:

Key:
Paclitaxel = compound: CC(=O)O[C@H]1C(=O)[C@@]2(C)[C@H]([C@H](OC(=O)c3ccccc3)[C@]3(O)C[C@H](OC(=O)[C@H](O)[C@@H](NC(=O)c4ccccc4)c4ccccc4)C(C)=C1C3(C)C)[C@]1(OC(C)=O)CO[C@@H]1C[C@@H]2O [Paclitaxel]
ABT-737 = compound: CN(C)CC[C@H](CSc1ccccc1)Nc1ccc(S(=O)(=O)NC(=O)c2ccc(N3CCN(Cc4ccccc4-c4ccc(Cl)cc4)CC3)cc2)cc1[N+](=O)[O-] [ABT-737]
Luminespib/NVP-AUY922 = compound: CCNC(=O)c1noc(-c2cc(C(C)C)c(O)cc2O)c1-c1ccc(CN2CCOCC2)cc1 [Luminespib/NVP-AUY922]
BSJ-01-175 = compound: CN(C)C/C=C/C(=O)Nc1ccc(O[C@@H]2CCC[C@@H](Nc3ncc(Cl)c(-c4c[nH]c5ccccc45)n3)C2)cc1 [BSJ-01-175]
Flavopiridol [1] = compound: T1, CN1CC[C@H](c2c(O)cc(O)c3c(=O)cc(-c4ccccc4Cl)oc23)[C@H](O)C1 [Flavopiridol]
Olaparib/AZD2281 = compound: O=C(c1cc(Cc2n[nH]c(=O)c3ccccc23)ccc1F)N1CCN(C(=O)C2CC2)CC1 [Olaparib/AZD2281]
Doxorubicin = compound: COc1cccc2c1C(=O)c1c(O)c3c(c(O)c1C2=O)C[C@@](O)(C(=O)CO)C[C@@H]3O[C@H]1C[C@H](N)[C@H](O)[C@H](C)O1 [Doxorubicin]
Ipatasertib/GDC0068 = compound: CC(C)NC[C@@H](C(=O)N1CCN(c2ncnc3c2[C@H](C)C[C@H]3O)CC1)c1ccc(Cl)cc1 [Ipatasertib/GDC0068]
Taselisib/GDC0032 = compound: Cc1nc(-c2cn3c(n2)-c2ccc(-c4cnn(C(C)(C)C(N)=O)c4)cc2OCC3)n(C(C)C)n1 [Taselisib/GDC0032]
BSJ-03-123 = compound: CC(=O)c1c(C)c2cnc(Nc3ccc(N4CCN(CCOCCOCCOCCNC(=O)COc5cccc6c5C(=O)N(C5CCC(=O)NC5=O)C6=O)CC4)cn3)nc2n(C2CCCC2)c1=O [BSJ-03-123]; assay: GR value, 72 h; higher = faster growth (1 = untreated, <0 = killing);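 also: breast cancer and non-malignant breast epithelial lines, nine half-log doses, viable cells counted by Hoechst and LIVE/DEAD dye imaging versus time-zero plates and DMSO controls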
YKL-5-124 = compound: C=CC(=O)Nc1ccc(C(=O)Nc2[nH]nc3c2CN(C(=O)N[C@H](CN(C)C)c2ccccc2)C3(C)C)cc1 [YKL-5-124]; assay: as above
[2] = compound: CC(=O)c1c(C)c2cnc(Nc3ccc(N4CCNCC4)cn3)nc2n(C2CCCC2)c1=O; assay: as above
THZ531 = compound: CN(C)C/C=C/C(=O)Nc1ccc(C(=O)N2CCC[C@@H](Nc3ncc(Cl)c(-c4c[nH]c5ccccc45)n3)C2)cc1 [THZ531]; assay: as above
Flavopiridol [3] = compound: T1, Flavopiridol; assay: as above
[4] = compound: CCN1CCN(Cc2ccc(Nc3ncc(F)c(-c4cc(F)c5nc(C)n(C(C)C)c5c4)n3)nc2)CC1; assay: as above
LEE011/Ribociclib = compound: CN(C)C(=O)c1cc2cnc(Nc3ccc(N4CCNCC4)cn3)nc2n1C1CCCC1 [LEE011/Ribociclib]; assay: as above
[5] = compound: CCc1cnn2c(NCc3ccc[n+]([O-])c3)cc(N3CCCC[C@H]3CCO)nc12; assay: as above
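For GR50, 72 h in this document: breast cancer and non-malignant breast epithelial cell lines, Deep Dye Drop or Dye Drop imaging, nine half-log doses, GR normalized to time-zero plates and DMSO-only controls.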

HCC1954
GR50, 72 h (Paclitaxel): 0.0025 µM
GR50, 72 h (ABT-737): 9.94 µM
GR50, 72 h (Luminespib/NVP-AUY922): 0.0103 µM
GR50, 72 h (BSJ-01-175): 0.102 µM
GR50, 72 h (Flavopiridol [1]): 0.128 µM
GR50, 72 h (Olaparib/AZD2281): > 10 µM
GR50, 72 h (Doxorubicin): 0.00718 µM
GR50, 72 h (Ipatasertib/GDC0068): 1.43 µM
GR50, 72 h (Taselisib/GDC0032): 0.00701 µM
GR value (BSJ-03-123; 0.001 µM): 0.886 GR
GR value (BSJ-03-123; 0.003162 µM): 0.859 GR
GR value (BSJ-03-123; 0.01 µM): 0.812 GR
GR value (BSJ-03-123; 0.03162 µM): 0.745 GR
GR value (BSJ-03-123; 0.1 µM): 0.689 GR
GR value (BSJ-03-123; 0.3162 µM): 0.746 GR
GR value (BSJ-03-123; 1 µM): 0.558 GR
GR value (BSJ-03-123; 3.162 µM): 0.473 GR
GR value (BSJ-03-123; 10 µM): -0.0177 GR
GR value (YKL-5-124; 0.001 µM): 0.224 GR
GR value (YKL-5-124; 0.003162 µM): 0.154 GR
GR value (YKL-5-124; 0.01 µM): 0.0574 GR
GR value (YKL-5-124; 0.03162 µM): 0.0823 GR
GR value (YKL-5-124; 0.1 µM): -0.0214 GR
GR value (YKL-5-124; 0.3162 µM): 0.0013 GR
GR value (YKL-5-124; 1 µM): -0.0774 GR
GR value (YKL-5-124; 3.162 µM): -0.0189 GR
GR value (YKL-5-124; 10 µM): -0.143 GR
GR value ([2]; 0.0003162 µM): 1.14 GR
GR value ([2]; 0.001 µM): 1.02 GR
GR value ([2]; 0.003162 µM): 1.07 GR
GR value ([2]; 0.01 µM): 0.905 GR
GR value ([2]; 0.03162 µM): 0.863 GR
GR value ([2]; 0.1 µM): 0.733 GR
GR value ([2]; 0.3162 µM): 0.611 GR
GR value ([2]; 1 µM): 0.57 GR
GR value ([2]; 3.162 µM): 0.523 GR
GR value (THZ531; 0.0001 µM): 1.04 GR
GR value (THZ531; 0.0003162 µM): 1.06 GR
GR value (THZ531; 0.001 µM): 0.921 GR
GR value (THZ531; 0.003162 µM): 1.04 GR
GR value (THZ531; 0.01 µM): 1.07 GR
GR value (THZ531; 0.03162 µM): 1.05 GR
GR value (THZ531; 0.1 µM): 0.873 GR
GR value (THZ531; 0.3162 µM): 0.66 GR
GR value (THZ531; 1 µM): -0.297 GR
GR value (Flavopiridol [3]; 0.0001 µM): 1.01 GR
GR value (Flavopiridol [3]; 0.0003162 µM): 0.967 GR
GR value (Flavopiridol [3]; 0.001 µM): 0.962 GR
GR value (Flavopiridol [3]; 0.003162 µM): 0.996 GR
GR value (Flavopiridol [3]; 0.01 µM): 0.907 GR
GR value (Flavopiridol [3]; 0.03162 µM): 0.928 GR
GR value (Flavopiridol [3]; 0.1 µM): 0.613 GR
GR value (Flavopiridol [3]; 0.3162 µM): 0.0144 GR
GR value (Flavopiridol [3]; 1 µM): -0.52 GR
GR value ([4]; 0.001 µM): 1.01 GR
GR value ([4]; 0.003162 µM): 0.941 GR
GR value ([4]; 0.01 µM): 0.844 GR
GR value ([4]; 0.03162 µM): 0.698 GR
GR value ([4]; 0.1 µM): 0.584 GR
GR value ([4]; 0.3162 µM): 0.503 GR
GR value ([4]; 1 µM): 0.36 GR
GR value ([4]; 3.162 µM): 0.193 GR
GR value ([4]; 10 µM): -0.5 GR
GR value (LEE011/Ribociclib; 0.001 µM): 0.804 GR
GR value (LEE011/Ribociclib; 0.003162 µM): 0.771 GR
GR value (LEE011/Ribociclib; 0.01 µM): 0.811 GR
GR value (LEE011/Ribociclib; 0.03162 µM): 0.771 GR
GR value (LEE011/Ribociclib; 0.1 µM): 0.655 GR
GR value (LEE011/Ribociclib; 0.3162 µM): 0.609 GR
GR value (LEE011/Ribociclib; 1 µM): 0.654 GR
GR value (LEE011/Ribociclib; 3.162 µM): 0.687 GR
GR value (LEE011/Ribociclib; 10 µM): 0.539 GR
GR value ([5]; 0.0001 µM): 0.941 GR
GR value ([5]; 0.0003162 µM): 1.04 GR
GR value ([5]; 0.001 µM): 1.05 GR
GR value ([5]; 0.003162 µM): 1.12 GR
GR value ([5]; 0.01 µM): 0.69 GR
GR value ([5]; 0.03162 µM): -0.352 GR
GR value ([5]; 0.1 µM): -0.474 GR
GR value ([5]; 0.3162 µM): -0.472 GR
GR value ([5]; 1 µM): -0.441 GR
